What all share (format): functional, organism-based
Experiment [1] concerns Rattus norvegicus. The experiment in a line: Analgesic activity in rat model of spared nerve injury-induced neuropathic pain assessed as increase in paw withdrawal threshold at 15 mg/kg, po administered via gavage once daily for 3 days by Von frey filament test.
The test system of experiment [2] is Rattus norvegicus. The experiment in a line: Analgesic activity in rat model of chronic constriction injury-induced neuropathic pain assessed as increase in paw withdrawal threshold at 9.5 mg/kg, po administered via gavage once daily for 3 days by Von frey filament test.
Experiment [3] has as its system Rattus norvegicus. The experiment in a line: Analgesic activity in rat model of spared nerve injury-induced neuropathic pain assessed as increase in paw withdrawal threshold at 20 mg/kg, po administered via gavage once daily for 3 days by Von frey filament test.
Experiment [4] relates to Rattus norvegicus. Kind of experiment: Analgesic activity in rat model of chronic constriction injury-induced neuropathic pain assessed as increase in paw withdrawal threshold at 10 mg/kg, po administered via gavage once daily for 3 days by Von frey filament test.
Experiment [5] concerns Rattus norvegicus. The experiment in a line: Analgesic activity in rat model of spared nerve injury-induced neuropathic pain assessed as increase in paw withdrawal threshold at 10 mg/kg, po administered via gavage once daily for 3 days by Von frey filament test.

In ChEMBL document CHEMBL4482318, “Sepiapterin reductase inhibitors” (2018) one finds Activity data, which are given here for 7 molecules.

Structures are written as SMILES. The source made the active and inactive calls.

As for `Cc1c(C(=O)N2CC3CC(C2)N3C2CC2)cnn1-c1nn2cccc2c(=O)[nH]1`, the outcome in experiment [1] was Active.

As to `Cc1c(C(=O)N2CCN(C3CC(F)(F)C3)CC2)cnn1-c1nn2cccc2c(=O)[nH]1`, in experiment [2], the result was Active.

On to `Cc1c(C(=O)N2CCC(c3nc(C#N)co3)CC2)cnn1-c1nn2cccc2c(=O)[nH]1`, for which the result in experiment [3] was Active.

In the case of `Cc1c(C(=O)N2CC(c3ccnc(F)c3)C2)cnn1-c1nn2cccc2c(=O)[nH]1`, in experiment [4], the result was Active.

Turning to `Cc1c(C(=O)N2CCC2c2ccc(F)nc2)cnn1-c1nn2cccc2c(=O)[nH]1` (configuration not stated), the outcome in experiment [5] was Active.

Turning to `Cc1c(C(=O)N2CCN(C3CC(F)(F)C3)CC2)nnn1-c1nn2cccc2c(=O)[nH]1`, the result in experiment [2] was Active.

Turning to `Cc1c(C(=O)N2CCN(C3CCC3(F)F)CC2)nnn1-c1nn2cccc2c(=O)[nH]1` (configuration not stated), the result in experiment [5] was Active.
